The results in this text go back to US20230105577A1, “A TOPICAL COMPOSITION” (Conopco, Inc., d/b/a UNILEVER, priority 2020, published 2023).

Where a name gives a salt, the structure may show the parent alone.

The test system of one experiment is M. furfur (CBS 1878). In words: Zone of inhibition (ZOI) assay. The class given is cell-based, Malassezia furfur. Conditions: 0.1% OCT, 10 μL on 6 mm filter paper, 32° C., 2 days. On the procedure:
Method 2: Zone Off Inhibition (ZOI) Assay
Atractylodes macrocephala (AM) root water extract (purchased from Huzhou Liaoyuan, China) was prepared at concentration of 0.75%, and 1.5% in 50% water/DMSO. Octopirox (OCT) was prepared at concentration of 0.1% and 0.2% in DMSO. Prepare Malassezia growth agar plates, and then spread 200 μL M. furfur (10^6 CFU) (CBS 1878) on to the agar. Several sterile filter papers (diameter=6 mm) were placed on the agar plate. 10 μL of compound solutions were added on the filter paper. The plates were Incubate at 32° C. for 2 days. Clear growth inhibition zone was recorded.
Synergistic antimicrobial activity:Inhibition distance for compound1+compound2combination>Inhibition distance for compound1 alone+Inhibition distance for compound2 alone

The test system of the next experiment is M. furfur (CBS1878). Conditions: for The range of concentration of the atractylenolide compound (ppm) where the ΣFIC was less than 0.9 / The range of ratio of atractylenolide compound/octopirox (w/w) where ΣFIC was less than 0.9: in combination with octopirox, 32° C.

Experimental for M. furfur (CBS1878): Method 1: ΣFIC Assay Against M. furfur.
M. furfur (CBS1878) was maintained on MD agar plate (Solution A) was cultured into 20 ml of growth medium Pityrosporum Broth (PB, Solution B). They are then incubated at 32° C. for 48 hours with shaking. Then, 1 ml of the first broth culture is transferred into 9 ml of fresh PB and incubated at 32° C. for 48 hours with shaking. The final culture should contain 2 to 6×10^6 cells/ml. This is achieved by diluting using PB to 5×10^5 cells/ml.
Octopirox® was serially diluted (2-fold) to prepare in a range of 60-1000 ppm in the growth medium. Testing atractylenolide compound (stock: 4 mg/ml) was 2-fold serially diluted in DMSO to prepare in a range of 40000-10 ppm. Binary combinations of octopirox and the testing compound were prepared in 96-well plate by mixing 10 μl of octopirox solution with 10 μl of testing compound. The solution in each well were further mixed with 180 μl of M. furfur strain suspensions in PB.
The final cell density in the testing plate is around 5*10^4 cell/ml. The final concentration of each ingredient in ppm (parts per million) after (20-fold dilution) was as follows. Each of these concentrations was tried out to determine the FIC value for (either of) Octopirox® in combination with one of the atractylenolide compound.
Multi-channel pipette was used to mix the compound and strain suspension. Thereafter the 96-well plates were incubated in an incubator. In accordance with the test protocols that were followed, M. furfur was incubated aerobically at 32° C. for 1 day. Thereafter 20 μl alamar blue (0.1%) was dispensed in each well and the procedure of incubation (as abovementioned) was repeated. Finally, the change in colour of the indicator was monitored to check for visible signs of microbial growth or inhibition of the growth. If the colour changed to red it indicated growth (of microbes) and blue indicated no growth or inhibition of growth.
The MIC is defined as the absolute lowest concentration of active that provides complete microbial growth inhibition as indicated by the blue color of alamar blue under the tested condition.
The procedure is as follows:
The parameter can be defined as follows:
After all the observations were recorded and tabulated, the Fractional Inhibition Concentration (FIC) was calculated.
This parameter is defined as follows:
ΣFIC=FIC(component1)+FIC(component2)
In this study, we have adopted a liberal approach defining any binary mixture with ΣFIC<0.9 as showing evidence of synergistic behavior.
The experiments were carried out over a concentration range of ingredients as below:

For the molecule `Cc1cc(CC(C)CC(C)(C)C)n(O)c(=O)c1` (stereo not shown) [OCT, 1-hydroxy-4-methyl-6-(2,4,4-trimethylpentyl)-2(1H) pyridinone monoethanolamine salt], the “Inhibition distance (mm) = (Inhibition zone diameter − filter paper diameter)/2” value with M. furfur (CBS 1878) (0.75% AM) and with M. furfur (CBS 1878) (1.5% AM) was 2.7 mm in each case.

`C=C1CCC[C@]2(C)C[C@@H]3OC(=O)C(C)=C3C[C@@H]12` [Atractylenolide II, atractylenolide II]: in the experiment on M. furfur (CBS1878), the “The range of concentration of the atractylenolide compound (ppm) where the ΣFIC was less than 0.9” value was 31.25-1000 ppm and the “The range of ratio of atractylenolide compound/octopirox (w/w) where ΣFIC was less than 0.9” value was 5-2560 w/w.

For the molecule `C=C1CCC[C@]2(C)C=C3OC(=O)C(C)=C3C[C@@H]12` [Atractylenolide I, atractylenolide I], in the experiment on M. furfur (CBS1878), the “The range of concentration of the atractylenolide compound (ppm) where the ΣFIC was less than 0.9” value is reported as 31.25-500 ppm and the “The range of ratio of atractylenolide compound/octopirox (w/w) where ΣFIC was less than 0.9” value is 5-1280 w/w.

For the molecule “zinc pyrithione [ZPTO, reference compound]”, the “Synergistic antimicrobial activity in combination with Octopirox® (ΣFIC assay)” value with M. furfur (CBS1878) (binary combination with Octopirox® 0-50 ppm) is given as “cannot interact synergistically”.
